# Measurements reported in patent publication US9738634B2, “Heterocyclic amide compound and herbicide” (SYNGENTA PARTICIPATIONS AG, priority 2013, dated 2017).
# Assays:
# fig-leafed goosefoot [1] = assay: Test Example 3: weedkilling efficacy through soil treatment; M: fig-leafed goosefoot; type: in vivo; conditions: treatment dosage 320 g/ha
# Outline: (§1)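 Crop and weed responses were judged three weeks after a uniform surface spray of the water-diluted emulsion at the given g/ha rate. Seeds sat beneath about 1.5 cm of sterilized diluvial soil, and boxes stood in a greenhouse at 25 to 30° C.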
# chickweed [2] = assay: Test Example 3: weedkilling efficacy through soil treatment; N: chickweed; type: in vivo; conditions: treatment dosage 320 g/ha
# Outline: as §1
# green foxtail [3] = assay: Test Example 4: weedkilling efficacy by foliar treatment; E: green foxtail; type: in vivo; conditions: treatment dosage 320 g/ha
# Outline: (§2)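 Seeds are spot-sown into sterilized diluvial soil and covered with about 1.5 cm of soil. After 14 days' greenhouse growth at 25 to 30° C, plants are sprayed on stems and leaves with diluted emulsion at the stated g/ha rate, then scored at 3 weeks.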
# common wind-grass [4] = assay: Test Example 3: weedkilling efficacy through soil treatment; J: common wind-grass; type: in vivo; conditions: treatment dosage 320 g/ha
# Outline: as §1
# wild oat [5] = assay: Test Example 4: weedkilling efficacy by foliar treatment; G: wild oat; type: in vivo; conditions: treatment dosage 320 g/ha
# Outline: as §2
# barnyard grass [6] = assay: Test Example 4: weedkilling efficacy by foliar treatment; F: barnyard grass; type: in vivo; conditions: treatment dosage 320 g/ha
# Outline: as §2
# catchweed [7] = assay: Test Example 4: weedkilling efficacy by foliar treatment; O: catchweed; type: in vivo; conditions: treatment dosage 320 g/ha
# Outline: as §2
# soybean [8] = assay: Test Example 4: foliar treatment, effect on crop; d: soybean; type: in vivo; conditions: treatment dosage 320 g/ha
# Outline: as §2
# oval-leafed pondweed [9] = assay: Test Example 1: weedkilling efficacy, preemergent weed treatment in the submerged state; C: oval-leafed pondweed; type: in vivo; conditions: treatment dosage 320 g/ha
# Outline: (§3)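 Pots of alluvial soil were flooded to a 4 cm depth. Mixed weed seeds were sown and 2.5 leaf-stage rice seedlings transplanted. On sowing day, water-diluted emulsion was applied to the water surface (dose in g/ha). After 3 weeks at 25–30 °C, effects were rated.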
# barnyard grass [10] = assay: Test Example 3: weedkilling efficacy through soil treatment; F: barnyard grass; type: in vivo; conditions: treatment dosage 320 g/ha
# Outline: as §1
# chickweed [11] = assay: Test Example 4: weedkilling efficacy by foliar treatment; N: chickweed; type: in vivo; conditions: treatment dosage 320 g/ha
# Outline: as §2
# birds-eye speedwell [12] = assay: Test Example 3: weedkilling efficacy through soil treatment; p: birds-eye speedwell; type: in vivo; conditions: treatment dosage 320 g/ha
# Outline: as §1
# directly sown rice [13] = assay: Test Example 4: foliar treatment, effect on crop; b: directly sown rice; type: in vivo; conditions: treatment dosage 320 g/ha
# Outline: as §2
# soybean [14] = assay: Test Example 3: soil treatment, effect on crop; d: soybean; type: in vivo; conditions: treatment dosage 320 g/ha
# Outline: as §1
# black-grass [15] = assay: Test Example 4: weedkilling efficacy by foliar treatment; H: black-grass; type: in vivo; conditions: treatment dosage 320 g/ha
# Outline: as §2
# wheat [16] = assay: Test Example 3: soil treatment, effect on crop; e: wheat; type: in vivo; conditions: treatment dosage 320 g/ha
# Outline: as §1
# Indian mallow [17] = assay: Test Example 4: weedkilling efficacy by foliar treatment; K: Indian mallow; type: in vivo; conditions: treatment dosage 320 g/ha
# Outline: as §2
# birds-eye speedwell [18] = assay: Test Example 4: weedkilling efficacy by foliar treatment; p: birds-eye speedwell; type: in vivo; conditions: treatment dosage 320 g/ha
# Outline: as §2
# crabgrass [19] = assay: Test Example 3: weedkilling efficacy through soil treatment; D: crabgrass; type: in vivo; conditions: treatment dosage 320 g/ha
# Outline: as §1
# transplanted rice = assay: Test Example 1: preemergent weed treatment in the submerged state, effect on crop; a: transplanted rice; type: in vivo; conditions: treatment dosage 320 g/ha
# Outline: as §3
# crabgrass [20] = assay: Test Example 4: weedkilling efficacy by foliar treatment; D: crabgrass; type: in vivo; conditions: treatment dosage 320 g/ha
# Outline: as §2
# barnyard grass [21] = assay: Test Example 2: weedkilling efficacy, growth period weed treatment in the submerged state; A: barnyard grass; type: in vivo; conditions: treatment dosage 320 g/ha
# Outline: (§4)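 Weeds treated at the 1-2 leaf stage by application of diluted emulsion onto floodwater (4 cm depth, alluvial soil) at specified g/ha. Grown in greenhouse at 25 to 30° C; herbicidal effect rated three weeks after treatment.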
# bulrush [22] = assay: Test Example 1: weedkilling efficacy, preemergent weed treatment in the submerged state; B: bulrush; type: in vivo; conditions: treatment dosage 320 g/ha
# Outline: as §3
# Indian mallow [23] = assay: Test Example 3: weedkilling efficacy through soil treatment; K: Indian mallow; type: in vivo; conditions: treatment dosage 320 g/ha
# Outline: as §1
# corn [24] = assay: Test Example 3: soil treatment, effect on crop; c: corn; type: in vivo; conditions: treatment dosage 320 g/ha
# Outline: as §1
# redroot pigweed [25] = assay: Test Example 3: weedkilling efficacy through soil treatment; L: redroot pigweed; type: in vivo; conditions: treatment dosage 320 g/ha
# Outline: as §1
# black-grass [26] = assay: Test Example 3: weedkilling efficacy through soil treatment; H: black-grass; type: in vivo; conditions: treatment dosage 320 g/ha
# Outline: as §1
# bulrush [27] = assay: Test Example 2: weedkilling efficacy, growth period weed treatment in the submerged state; B: bulrush; type: in vivo; conditions: treatment dosage 320 g/ha
# Outline: as §4
# wheat [28] = assay: Test Example 4: foliar treatment, effect on crop; e: wheat; type: in vivo; conditions: treatment dosage 320 g/ha
# Outline: as §2
# beet [29] = assay: Test Example 3: soil treatment, effect on crop; f: beet; type: in vivo; conditions: treatment dosage 320 g/ha
# Outline: as §1
# directly sown rice [30] = assay: Test Example 3: soil treatment, effect on crop; b: directly sown rice; type: in vivo; conditions: treatment dosage 320 g/ha
# Outline: as §1
# corn [31] = assay: Test Example 4: foliar treatment, effect on crop; c: corn; type: in vivo; conditions: treatment dosage 320 g/ha
# Outline: as §2
# barnyard grass [32] = assay: Test Example 1: weedkilling efficacy, preemergent weed treatment in the submerged state; A: barnyard grass; type: in vivo; conditions: treatment dosage 320 g/ha
# Outline: as §3
# Italian ryegrass [33] = assay: Test Example 4: weedkilling efficacy by foliar treatment; I: Italian ryegrass; type: in vivo; conditions: treatment dosage 320 g/ha
# Outline: as §2
# catchweed [34] = assay: Test Example 3: weedkilling efficacy through soil treatment; O: catchweed; type: in vivo; conditions: treatment dosage 320 g/ha
# Outline: as §1
# redroot pigweed [35] = assay: Test Example 4: weedkilling efficacy by foliar treatment; L: redroot pigweed; type: in vivo; conditions: treatment dosage 320 g/ha
# Outline: as §2
# rapeseed [36] = assay: Test Example 3: soil treatment, effect on crop; g: rapeseed; type: in vivo; conditions: treatment dosage 320 g/ha
# Outline: as §1
# common wind-grass [37] = assay: Test Example 4: weedkilling efficacy by foliar treatment; J: common wind-grass; type: in vivo; conditions: treatment dosage 320 g/ha
# Outline: as §2
# Italian ryegrass [38] = assay: Test Example 3: weedkilling efficacy through soil treatment; I: Italian ryegrass; type: in vivo; conditions: treatment dosage 320 g/ha
# Outline: as §1
# wild oat [39] = assay: Test Example 3: weedkilling efficacy through soil treatment; G: wild oat; type: in vivo; conditions: treatment dosage 320 g/ha
# Outline: as §1
# green foxtail [40] = assay: Test Example 3: weedkilling efficacy through soil treatment; E: green foxtail; type: in vivo; conditions: treatment dosage 320 g/ha
# Outline: as §1
# beet [41] = assay: Test Example 4: foliar treatment, effect on crop; f: beet; type: in vivo; conditions: treatment dosage 320 g/ha
# Outline: as §2
# rapeseed [42] = assay: Test Example 4: foliar treatment, effect on crop; g: rapeseed; type: in vivo; conditions: treatment dosage 320 g/ha
# Outline: as §2
# oval-leafed pondweed [43] = assay: Test Example 2: weedkilling efficacy, growth period weed treatment in the submerged state; C: oval-leafed pondweed; type: in vivo; conditions: treatment dosage 320 g/ha
# Outline: as §4
# fig-leafed goosefoot [44] = assay: Test Example 4: weedkilling efficacy by foliar treatment; M: fig-leafed goosefoot; type: in vivo; conditions: treatment dosage 320 g/ha
# Outline: as §2
structure (smiles),measurement,setting,value
"CCCN(C(=O)C(C)(C)N1COCN(c2ccccc2)C1=O)c1cc(C(F)(F)F)ccn1 [A-5-05, 2-methyl-2-(4-oxo-5-phenyl-1,3,5-oxadiazinan-3-yl)-N-propyl-N-[4-(trifluoromethyl)-pyridin-2-yl]propionamide]",melting point,,163 to 164 °C
"CCC1N=CSN1NC(=O)C(C)(C)N1COC(C)=C(c2ccsc2)C1=O (centres unmarked) [B-1-02, N-(3-ethyl-1,2,4-thiadiazol-2-yl)-2-methyl-2-[6-methyl-4-oxo-5-(thiophen-3-yl)-2H-1,3-oxazin-3(4H)-yl]propionamide]",melting point,,171 to 172 °C
CC1=C(c2ccccc2)C(=O)N(C(C)(C)C(=O)Nc2cc(C#N)ccn2)CO1 [B-2-62],M (fig-leafed goosefoot) weedkilling efficacy grade,fig-leafed goosefoot [1],"3 (weed kill ratio 40% or more, less than 70%)"
same,N (chickweed) weedkilling efficacy grade,chickweed [2],"3 (weed kill ratio 40% or more, less than 70%)"
same,E (green foxtail) weedkilling efficacy grade,green foxtail [3],"3 (weed kill ratio 40% or more, less than 70%)"
same,J (common wind-grass) weedkilling efficacy grade,common wind-grass [4],"5 (weed kill ratio 90% or more, (practically complete withering))"
same,G (wild oat) weedkilling efficacy grade,wild oat [5],"1 (weed kill ratio 5% or more, less than 20%)"
same,F (barnyard grass) weedkilling efficacy grade,barnyard grass [6],"3 (weed kill ratio 40% or more, less than 70%)"
same,O (catchweed) weedkilling efficacy grade,catchweed [7],"1 (weed kill ratio 5% or more, less than 20%)"
same,d (soybean) effect on crop grade,soybean [8],0 (weed kill ratio 5% or less (practically no effect))
same,C (oval-leafed pondweed) weedkilling efficacy grade,oval-leafed pondweed [9],"5 (weed kill ratio 90% or more, (practically complete withering))"
same,F (barnyard grass) weedkilling efficacy grade,barnyard grass [10],"3 (weed kill ratio 40% or more, less than 70%)"
same,N (chickweed) weedkilling efficacy grade,chickweed [11],"2 (weed kill ratio 20% or more, less than 40%)"
same,P (birds-eye speedwell) weedkilling efficacy grade,birds-eye speedwell [12],"4 (weed kill ratio 70% or more, less than 90%)"
same,b (directly sown rice) effect on crop grade,directly sown rice [13],0 (weed kill ratio 5% or less (practically no effect))
same,d (soybean) effect on crop grade,soybean [14],0 (weed kill ratio 5% or less (practically no effect))
same,H (black-grass) weedkilling efficacy grade,black-grass [15],"3 (weed kill ratio 40% or more, less than 70%)"
same,e (wheat) effect on crop grade,wheat [16],0 (weed kill ratio 5% or less (practically no effect))
same,K (Indian mallow) weedkilling efficacy grade,Indian mallow [17],"4 (weed kill ratio 70% or more, less than 90%)"
same,P (birds-eye speedwell) weedkilling efficacy grade,birds-eye speedwell [18],"4 (weed kill ratio 70% or more, less than 90%)"
same,D (crabgrass) weedkilling efficacy grade,crabgrass [19],"4 (weed kill ratio 70% or more, less than 90%)"
same,a (transplanted rice) effect on crop grade,transplanted rice,"1 (weed kill ratio 5% or more, less than 20%)"
same,D (crabgrass) weedkilling efficacy grade,crabgrass [20],"3 (weed kill ratio 40% or more, less than 70%)"
same,A (barnyard grass) weedkilling efficacy grade,barnyard grass [21],"4 (weed kill ratio 70% or more, less than 90%)"
same,B (bulrush) weedkilling efficacy grade,bulrush [22],"5 (weed kill ratio 90% or more, (practically complete withering))"
same,K (Indian mallow) weedkilling efficacy grade,Indian mallow [23],0 (weed kill ratio 5% or less (practically no effect))
same,c (corn) effect on crop grade,corn [24],0 (weed kill ratio 5% or less (practically no effect))
same,L (redroot pigweed) weedkilling efficacy grade,redroot pigweed [25],"2 (weed kill ratio 20% or more, less than 40%)"
same,H (black-grass) weedkilling efficacy grade,black-grass [26],"3 (weed kill ratio 40% or more, less than 70%)"
same,B (bulrush) weedkilling efficacy grade,bulrush [27],"3 (weed kill ratio 40% or more, less than 70%)"
same,e (wheat) effect on crop grade,wheat [28],0 (weed kill ratio 5% or less (practically no effect))
same,f (beet) effect on crop grade,beet [29],0 (weed kill ratio 5% or less (practically no effect))
same,b (directly sown rice) effect on crop grade,directly sown rice [30],0 (weed kill ratio 5% or less (practically no effect))
same,c (corn) effect on crop grade,corn [31],0 (weed kill ratio 5% or less (practically no effect))
same,A (barnyard grass) weedkilling efficacy grade,barnyard grass [32],"5 (weed kill ratio 90% or more, (practically complete withering))"
same,I (Italian ryegrass) weedkilling efficacy grade,Italian ryegrass [33],"2 (weed kill ratio 20% or more, less than 40%)"
same,O (catchweed) weedkilling efficacy grade,catchweed [34],0 (weed kill ratio 5% or less (practically no effect))
same,L (redroot pigweed) weedkilling efficacy grade,redroot pigweed [35],"4 (weed kill ratio 70% or more, less than 90%)"
same,g (rapeseed) effect on crop grade,rapeseed [36],0 (weed kill ratio 5% or less (practically no effect))
same,J (common wind-grass) weedkilling efficacy grade,common wind-grass [37],"4 (weed kill ratio 70% or more, less than 90%)"
same,I (Italian ryegrass) weedkilling efficacy grade,Italian ryegrass [38],"4 (weed kill ratio 70% or more, less than 90%)"
same,G (wild oat) weedkilling efficacy grade,wild oat [39],"3 (weed kill ratio 40% or more, less than 70%)"
same,E (green foxtail) weedkilling efficacy grade,green foxtail [40],"4 (weed kill ratio 70% or more, less than 90%)"
same,f (beet) effect on crop grade,beet [41],0 (weed kill ratio 5% or less (practically no effect))
same,g (rapeseed) effect on crop grade,rapeseed [42],"4 (weed kill ratio 70% or more, less than 90%)"
same,C (oval-leafed pondweed) weedkilling efficacy grade,oval-leafed pondweed [43],"5 (weed kill ratio 90% or more, (practically complete withering))"
same,M (fig-leafed goosefoot) weedkilling efficacy grade,fig-leafed goosefoot [44],"3 (weed kill ratio 40% or more, less than 70%)"
